Measurements as given in article PMC3929664, “A Panel of Diverse Assays to Interrogate the Interaction between Glucokinase and Glucokinase Regulatory Protein, Two Vital Proteins in Human Disease” (PLoS ONE, 2014).
Where a name gives a salt, the structure may show the parent alone.

How the values were obtained:
[1] = tested on: europium-conjugated rabbit anti-mouse IgG antibody / mouse anti-FLAG XL 665 antibody; assay: IgG HTRF counter-assay; settings: no GCK or GKRP, mean ± SD
Protocol: (§1) S6P, F1P, and glucose were dissolved in water; GKAs were dissolved in DMSO.
(TIF) Click here for additional data file.

[2] = biological target: T1, GCK enzymatic reaction inhibited by GKRP (recombinant human GCK and GKRP) (Homo sapiens, UniProt P35557+Q14397); assay: Bioluminescence assay (ADP-Glo) of the GCK enzyme reaction with GKRP; format: biochemical; settings: for LOPAC1280 screen outcome: 2 µM S6P; for response across formats (ADP only, GCK only, GCK-GKRP): 0.04 mM ADP, 4 nM GCK, 15 nM GCK with 15 nM GKRP
T1 construct: made in house
T1 sequence (P35557 1-465): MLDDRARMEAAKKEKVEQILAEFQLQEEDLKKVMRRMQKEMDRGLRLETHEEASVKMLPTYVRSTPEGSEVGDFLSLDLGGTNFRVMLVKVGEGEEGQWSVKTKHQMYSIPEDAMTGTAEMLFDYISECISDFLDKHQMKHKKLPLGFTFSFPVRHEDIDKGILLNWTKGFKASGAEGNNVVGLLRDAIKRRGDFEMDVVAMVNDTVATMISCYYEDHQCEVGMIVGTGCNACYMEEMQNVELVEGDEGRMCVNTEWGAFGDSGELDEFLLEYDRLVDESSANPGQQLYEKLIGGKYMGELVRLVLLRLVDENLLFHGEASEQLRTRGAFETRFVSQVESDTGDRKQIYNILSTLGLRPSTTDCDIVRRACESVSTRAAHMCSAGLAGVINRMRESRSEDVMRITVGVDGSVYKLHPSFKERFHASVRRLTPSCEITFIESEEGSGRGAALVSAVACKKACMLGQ
T1 sequence (Q14397 1-625): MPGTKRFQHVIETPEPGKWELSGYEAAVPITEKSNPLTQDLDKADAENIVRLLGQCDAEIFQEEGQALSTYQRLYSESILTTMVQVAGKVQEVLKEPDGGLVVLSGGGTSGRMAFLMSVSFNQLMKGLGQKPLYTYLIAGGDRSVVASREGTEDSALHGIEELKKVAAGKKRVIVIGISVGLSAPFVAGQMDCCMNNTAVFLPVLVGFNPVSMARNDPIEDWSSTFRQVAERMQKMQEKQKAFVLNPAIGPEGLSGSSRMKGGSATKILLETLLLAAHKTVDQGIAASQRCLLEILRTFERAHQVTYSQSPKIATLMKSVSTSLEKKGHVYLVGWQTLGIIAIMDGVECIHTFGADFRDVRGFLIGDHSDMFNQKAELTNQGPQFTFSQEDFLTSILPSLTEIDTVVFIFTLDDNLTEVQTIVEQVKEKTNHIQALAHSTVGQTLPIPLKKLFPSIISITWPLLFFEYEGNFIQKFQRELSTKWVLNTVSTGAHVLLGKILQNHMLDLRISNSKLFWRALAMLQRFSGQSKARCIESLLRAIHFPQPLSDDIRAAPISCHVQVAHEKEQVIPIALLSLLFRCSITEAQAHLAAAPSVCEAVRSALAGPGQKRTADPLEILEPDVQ
Protocol: A luminescence-based assay was developed for detection of ADP generation by recombinant GST-GCK (ADP-Glo™ Kinase Assay; Promega). Final reaction conditions included 25 mM HEPES, 25 mM KCl, 2 mM MgCl2, 1 mM DTT, 0.025% BSA, 0.01% Tween-20, 5 mM glucose, and concentrations of GST-GCK and FLAG-GKRP as indicated, and the reaction was initiated by addition of ATP to a final concentration of 0.4 mM. The reaction was terminated and luminescence generated using ADP-Glo™ Reagent and Kinase Detection Reagent (both Promega). In 1536-well plate format, luminescence enzyme assay buffer was dispensed (2 µl/well) using a BioRAPTR into white 1536-well medium binding plates and initiated by addition of 1 µl 1.2 mM ATP. After lidded incubation for the times indicated at room temperature, 2.5 µl of ADP-Glo™ Reagent was added to each well and plates were incubated with lidding for 60 minutes at room temperature. Following 5 µl addition per well of Kinase Detection Reagent, plates were incubated with lidding for a further 30 minutes at room temperature before luminescent detection using a ViewLux Microplate Imager (PerkinElmer). For the LOPAC^1280 library screen, column 1 was all components with DMSO (maximum signal) and column 3 was no GCK with DMSO (minimum signal). These two control columns were used for data normalization. The final HTS protocol is in Table S3, and the data have been deposited in PubChem (AID 743206).
as §1
The firefly luciferase enzyme utilizes luciferin and ATP to generate bioluminescence, and the coupling of ATP-dependent kinases to luciferase activity has enabled kinase activity to be measured quantitatively by luminescence measurements in high-throughput screens. The ADP-Glo™ assay, utilizing a two-step luciferase-based ADP-detection protocol, was employed to measure GCK activity ( Figure 1C ). Initial validation was carried out in 384-well plate format, and focused on GCK in the absence of GKRP to test suitability of the ADP-Glo™ format for the GCK enzyme. A titration of 14 GCK concentrations (1.5–100 nM; n = 8 for each concentration) was assessed at 5 mM glucose and 0.4 mM ATP at pH 7.4. The reaction was incubated for 45 minutes at room temperature. To estimate percent conversion of ATP to ADP, mixtures of ATP and ADP (total concentration 0.4 mM) were tested in duplicate, containing 0, 3, 5, 10, 30, 50, 70, and 100% ADP. The luminescence value at 10% ADP corresponded to the luminescence generated by 4 nM GCK (Figure S7). The ADP-Glo™ kit is linear throughout the range tested and provides an excellent range of detection.
The effects of GKRP inhibition were then assessed using the same reaction conditions at pH 7.1. ADP generation was measured using a matrix of five concentrations each of GCK and GKRP (0, 5, 10, 15, and 20 nM) in quadruplicate ( Figure 5A ). Reactions were incubated for 75 minutes. Luminescence of 15 nM GCK was reduced by approximately 60% by 15 nM GKRP, and the mean S/B at 15 nM GCK +15 nM GKRP was 3.7.
Accordingly, the bioluminescence reaction was capable of measuring GCK enzymatic activity and its inhibition by GKRP. We therefore pursued miniaturization of the assay to 1536-well plate format and tested the effects of S6P and F1P in three different assay formats: 0.04 mM ADP in the absence of GCK and GKRP, 4 nM GCK, and 15 nM GCK with 15 nM GKRP ( Figure 5B ). All assays provided robust luminescence signal in the absence of F1P or S6P (S/B >4.0).

[3] = tested on: GCK and GKRP; design: method as in PMID 14627435; settings: enhancement of the interaction of GCK and GKRP; read-out: EC50, previously reported; cited from earlier work

Row | EC50 ([2]; 15 nM GCK, 15 nM GKRP, 75 minutes, mean ± SD, read-out: EC50 (activation of GCK enzymatic reaction, increase in luminescence)) [nM] | response across formats (ADP only, GCK only, GCK-GKRP) [2] | IC50 ([2]; 15 nM GCK, 15 nM GKRP, 75 minutes, mean ± SD, read-out: IC50 (decrease in luminescence)) [nM] | Compound | IC50 [1] [nM] | LOPAC1280 screen outcome ([2]; 15 nM GCK, 15 nM GKRP) | EC50 [3] [nM]
1 |  |  |  | O=C(O)C1=CC(=C(c2ccc(O)c(C(=O)O)c2)c2ccc(O)c(C(=O)O)c2)C=CC1=O [ATA, aurintricarboxylic acid] | 90 ± 30 | inhibitors of the GCK-GKRP interaction | 
2 | 1000 ± 200 | dependent on the presence of GKRP |  | O=C(COP(=O)(O)O)[C@@H](O)[C@H](O)[C@H](O)CO [F1P, fructose 1-phosphate] |  |  | 
3 |  | dependent on the presence of GKRP | 5 ± 0.6 | O=P(O)(O)OC[C@@H](O)[C@@H](O)[C@H](O)[C@@H](O)CO [S6P, sorbitol 6-phosphate] |  |  | ~500
4 |  |  |  | Cc1ccc(C(=O)Nc2ccc(S(=O)(=O)O)c3cc(S(=O)(=O)O)cc(S(=O)(=O)O)c23)cc1NC(=O)c1cccc(NC(=O)Nc2cccc(C(=O)Nc3cc(C(=O)Nc4ccc(S(=O)(=O)O)c5cc(S(=O)(=O)O)cc(S(=O)(=O)O)c45)ccc3C)c2)c1 [suramin sodium salt] | 250 ± 70 | inhibitors of the GCK-GKRP interaction | 
